Data from article PMC7961094 (The Journal of Biological Chemistry, 2021).
Where two headings read alike, the source gives them in different places.

Assays:
[1] = target: glutamate dehydrogenase (GDH); experiment: 2,4-DNPH oxidative deamination assay with GDH; format: biochemical, thermophilic bacterium species; settings: 0.25 μM GDH; for IC50: 5 mM L-glutamate, 2.5 mM NAD^+, brackets 95% confidence interval
Description: Next, we selected two reported GDH inhibitors to assess their IC50 values using the 2,4-DNPH α-KG assay. For these experiments, we held glutamate and NAD^+ at saturating concentrations of 5 mM and 2.5 mM, respectively, while varying the concentrations of inhibitors. Hexachlorophene (HCP) is a noncompetitive inhibitor of GDH that binds to the inner core of the GDH hexamer, thereby preventing the conformational changes necessary for catalytic turnover ([60]). […] Conversely, 2-Methyleneglutarate (2-MG) was selected as a nonaromatic, competitive inhibitor of GDH with respect to L-glutamate ([61]).
Lyophilized GDH was resuspended in a solution of 50 mM Tris-base buffer (pH 8.0) and […]. Each oxidative deamination reaction was carried out in a final volume of 0.5 ml. The cofactor mix was prepared with 50 mM Tris-base buffer (pH 8.0), 1 mM EDTA, 5 mM L-glutamate and 2.5 mM NAD^+ and commenced by adding 0.25 μM GDH. The reaction was allowed to proceed at 50 °C for up to 30 min. During the course of the reaction, 50 μl was withdrawn at various time points from the reaction tube and quenched in 50 μl of 10% TCA at predetermined time points and vortexed. The downstream processing steps are identical to those of the 2,4-DNPH α-KG assay.
(§1) Subsequent measurements were performing at time points conforming to those requirements. Initial velocities at each substrate concentration were fit using linear regression to generate Michaelis–Menten titration curves.
(§2) All data were plotted using GraphPad Prism 8.0 and presented as a mean ± standard deviation of three independent biological replicates, unless otherwise stated. For kinetic data, Km was determined by fitting the data to a least squares ordinary fit Michealis–Menten function, while IC50 values were obtained from fitting the data to a three-parameter log(inhibitor) versus response function. Where applicable, two-tailed t tests were performed to determine statistical significance using a p-value of 0.05.

PHD2_181-426 = PHD2_181-426 (Homo sapiens, UniProt Q9GZT9); experiment: 2,4-DNPH α-KG assay with PHD2
Description: (§3) During the course of the reaction, 50 μl was withdrawn at various time points from the reaction tube and quenched in 50 μl of 10% TCA at predetermined time points and vortexed.
as §1, §2

PHD3 [2] = target: PHD3 (Homo sapiens, UniProt Q9H6Z9); experiment: 2,4-DNPH α-KG assay with PHD3
Description: as §3, §1, §2

PHD2 = settings: read-out: Km (app; α-KG), cited from earlier work
PHD3 [3] = settings: read-out: Km (app; α-KG), cited from earlier work

PHD3 (Homo sapiens, UniProt Q9H6Z9), sequence (Q9H6Z9 whole entry): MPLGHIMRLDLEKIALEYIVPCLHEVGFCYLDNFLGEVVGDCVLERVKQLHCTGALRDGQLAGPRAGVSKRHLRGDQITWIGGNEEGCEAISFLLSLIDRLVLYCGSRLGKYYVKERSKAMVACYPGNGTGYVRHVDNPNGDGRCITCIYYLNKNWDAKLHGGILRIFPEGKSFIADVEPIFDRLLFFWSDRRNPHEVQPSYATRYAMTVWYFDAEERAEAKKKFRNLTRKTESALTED
PHD2_181-426, sequence (Q9GZT9 181-426): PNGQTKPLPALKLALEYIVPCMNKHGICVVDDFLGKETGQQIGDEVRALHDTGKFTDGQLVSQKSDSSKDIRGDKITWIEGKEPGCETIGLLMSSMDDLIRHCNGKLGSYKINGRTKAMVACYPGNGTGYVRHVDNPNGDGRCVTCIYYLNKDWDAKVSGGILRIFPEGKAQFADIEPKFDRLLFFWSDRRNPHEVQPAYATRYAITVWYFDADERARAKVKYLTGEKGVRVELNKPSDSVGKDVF

C=C(CCC(=O)O)C(=O)O [2-MG, 2-methyleneglutaric acid, reference compound]
IC50 [1]: 24.9 µM
IC50 ([1]; listed as 2-Methyleneglutarate (2-MG)): 24.9 µM

[Cl-].[Cl-].[Co+2] [CoCl2, cobalt (II) chloride, reference compound]
IC50 (PHD2_181-426): 6.4 µM
IC50 (PHD3 [2]; 0.5 mM α-ketoglutarate, 100 μM HIF peptide, 10 μM PHD3, brackets 95% confidence interval): 79.3 µM

Oc1c(Cl)cc(Cl)c(Cl)c1Cc1c(O)c(Cl)cc(Cl)c1Cl [HCP, Hexachlorophene, reference compound]
IC50 [1]: 1.52 µM

NC(=O)c1ccc[n+]([C@@H]2O[C@H](COP(=O)([O-])OP(=O)(O)OC[C@H]3O[C@@H](n4cnc5c(N)ncnc54)[C@H](O)[C@@H]3O)[C@@H](O)[C@H]2O)c1 [NAD^+, nicotinamide adenine dinucleotide]
kcat for NAD^+ ([1]; increasing NAD^+, saturating other reagents): 252 ± 8 min⁻¹
Km ([1]; increasing NAD^+, saturating other reagents, read-out: Km for NAD^+): 517 ± 55.8 µM

O=C(O)CNC(=O)C(=O)O [NOG, N-oxalylglycine]
IC50 (PHD3 [2]): 51.3 µM

N[C@@H](CCC(=O)O)C(=O)O [glutamate, L-glutamate]
kcat for glutamate ([1]; increasing L-glutamate, saturating other reagents): 268 ± 4 min⁻¹
Km ([1]; increasing L-glutamate, saturating other reagents, read-out: Km for glutamate): 746 ± 58.6 µM

O=C(O)CCC(=O)C(=O)O [α-ketoglutarate]
kcat (α-ketoglutarate titration) (PHD2_181-426): 4.3 ± 0.3 min⁻¹
Km (PHD2; PHD2, ref Dao et al. ([52])): 0.343 ± 0.028 µM
Km (PHD2; PHD2, ref Hirsila et al. ([2])): 60 µM
Km (PHD2; PHD2, ref Koivunen et al. ([51])): 1 ± 0.2 µM
Km (PHD2; PHD2^181–426, ref Ehrismann et al. ([11])): 55 ± 1.1 µM
Km (PHD2; PHD2^181–426, ref McNeill et al. ([10])): 25 ± 6 µM
Km (PHD2; PHD2^181–426, ref Tarhonskaya et al. ([19])): 13 ± 2 µM
Km (PHD3 [3]; ref Hirsila et al. ([2])): 55 µM
Km (PHD3 [3]; ref Koivunen et al. ([51])): 12 ± 4 µM
Km (PHD3 [3]; ref Oehme et al. ([25])): 3 µM
